Assay results from patent publication US7462464B1, “Method for the detection of antimicrobial residues in food and bodily fluid samples” (priority 1999, dated 2008).

Experiments:
Format in all cases: cell-based
[1] = tested on: Bacillus stearothermophilus; experiment: Delvotest microbial inhibition test, spiked egg samples; details: heated 10 minutes at 80° C., incubated at 64° C., read after 140 minutes
Protocol: A hole of approximately 1-2 cm2 was made in the egg, the egg yolk was pricked and the egg was placed with the hole down on a bottle allowing the egg white and egg yolk to drip into the bottle. After the egg had emptied, the bottle was closed and the sample was homogenized by shaking. To inactivate the natural inhibiting compounds present in the egg sample, 100 μl of each of the 5 samples was added on Delvotest® ampoules. The test was produced according to the methods described in EP 0005891 with the nutrients present in the agar. After heating for 10 minutes at 80° C. in a waterbath, the ampoules were immediately placed in a waterbath at 64° C. and incubated following the instructions of the producer. […] Egg samples were obtained according to the method described in Example 3. The samples were spiked by adding Penicillin G (0 and 4 ppb) or Sulphadiazine (0 and 100 ppb). The egg samples were added to Delvotest® ampoules (see Example 3) according to the method described in this invention: heated for 10 minutes at 80° C., and then, immediately placed in a waterbath at 64° C. and incubated following the instructions of the manufacturer.

[2] = tested on: Bacillus stearothermophilus; experiment: Microbial inhibition test ampoules (EP 0005891), spiked raw milk; details: with or without bovine albumine 6% or heating 10 minutes at 80° C., controls yellow after 160-185 minutes
Protocol: Raw milk samples of negative cows were obtained from a farmer (negative in the sense of the presence of antibiotics). Spiked samples were prepared by adding Penicillin G to the milk (0, 4 and 6 ppb). To a part of said samples the thickening agent bovine albumine (Sigma) was added to a final concentration of 6%. The samples were then examined using microbial inhibition test ampoules produced according to the method described in EP 0005891 with the nutrients in the agar. 100 μl of milk was added to the test ampoules. A part of the test ampoules with the raw milk sample was heated for 10 minutes at 80° C. as described in Example 1. All experiments were executed in five fold. The tests were further incubated following the methods described in Example 1.

[3] = tested on: Bacillus stearothermophilus; experiment: Premi Test microbial inhibition test, spiked chicken meat juice with thickening agent
Protocol: (§1) The samples were then examined using microbial inhibition test ampoules produced according to the methods described in EP 0005891 with the nutrients present in the agar. The said test is also known as Premi®Test (commercially available from DSM N.V., Delft, The Netherlands).
Fresh chicken breast meat of a negative chicken was obtained from a slaughterhouse (negative in the sense of the presence of antibiotics). To obtain meat fluid for further testing pieces of meat were heated for 10 minutes at 64° C. and gently sqeezed using a garlic press. Spiked samples were prepared by adding Amoxicillin (0, 5 and 10 ppb), Oxytetracycline (0, 75 and 100 ppb) or Sulphadiazine (0, 75 and 100 ppb) to the meat juice.
To a part of said samples the thickening agent methylcellulose (4000 c.p.i., Sigma) was added to a final concentration of 1.5%.
100 μl of each sample was added to the Premi®Test ampoules (in duplicate) following the procedure described in Example 1. However, since a thickening agent was added, the pre-incubation step was not required anymore. Also the heating of the samples for 10 minutes at 80° C. was not required for this specific sample.
In addition a similar experiment was executed. However, now samples containing 10 ppb of Amoxycillin or 200 ppb of Oxytetracycline were prepared and the thickening agent bovine albumine (Sigma) was added to a final concentration of 6%.

[4] = tested on: Bacillus stearothermophilus; experiment: Premi Test microbial inhibition test, spiked bovine kidney pre-urine; details: part of sample with methylcellulose 1.5%, controls yellow after 185 minutes
Excerpt: Fresh kidneys of 7 negative (negative in the sense of the presence of antibiotics) cows were obtained from a slaughterhouse. To obtain samples for testing for the presence or absence of antimicrobial drug residues, the rosettes of the kidneys were divided into pieces. The pieces were gently squeezed using a garlic press to obtain pre-urine.
as §1
100 μl of each of the 7 squeezed samples (pre-urine) was added to the test ampoules and heated for 10 minutes at 80° C. in a waterbath, the ampoules were immediately placed in a waterbath of 64° C. and incubated following the instructions of the manufacturer.
The experiment was executed as described in Example 1. However now to a part of the pre-urine sample the thickening agent methylcellulose (4000 c.p.i., Sigma) was added to a final concentration of 1.5%. Also spiked samples were prepared following the method described in Example 6.

CC1(C)S[C@@H]2[C@H](NC(=O)Cc3ccccc3)C(=O)N2[C@H]1C(=O)O [Penicillin G]
remained purple (positive): test colour / result (purple = positive, growth of test organism inhibited) ([1]; egg sample spiked with 4 ppb) | test colour / result (purple = positive) ([2]; raw milk spiked with 4 ppb) | test colour / result (purple = positive) ([2]; raw milk spiked with 6 ppb)

Nc1ccc(S(=O)(=O)Nc2ncccn2)cc1 [Sulphadiazine]
remained purple (positive): test colour / result (purple = positive, growth of test organism inhibited) ([1]; egg sample spiked with 100 ppb) | test colour / result (purple = positive) ([3]; chicken meat juice spiked with 75 ppb, part of samples with methylcellulose 1.5%, after 160 minutes) | test colour / result (purple = positive) ([3]; chicken meat juice spiked with 100 ppb, part of samples with methylcellulose 1.5%, after 160 minutes) | test colour / result (purple = positive) ([4]; pre-urine spiked with 75 ppb) | test colour / result (purple = positive) ([4]; pre-urine spiked with 100 ppb)

CC1(C)S[C@@H]2[C@H](NC(=O)[C@H](N)c3ccc(O)cc3)C(=O)N2[C@H]1C(=O)O [Amoxicillin]
remained purple: test colour / result (purple = positive) ([3]; chicken meat juice spiked with 10 ppb, bovine albumine 6%, after 165 minutes)
remained purple (positive): test colour / result (purple = positive) ([3]; chicken meat juice spiked with 5 ppb, part of samples with methylcellulose 1.5%, after 160 minutes) | test colour / result (purple = positive) ([3]; chicken meat juice spiked with 10 ppb, part of samples with methylcellulose 1.5%, after 160 minutes) | test colour / result (purple = positive) ([4]; pre-urine spiked with 5 ppb) | test colour / result (purple = positive) ([4]; pre-urine spiked with 10 ppb)
